Experimental data from patent publication US20230242663A1, “COMBINATION THERAPY COMPRISING ANTI-CD137 ANTIBODIES” (Adagene PTE. LTD., priority 2020, published 2023).

Assays:
[1] = system: HUT78 human TCL cells; assay: Dose-dependent effects on CD137L protein surface expression (flow cytometry); assay type: cell-based; settings: for regulation of CD137L protein surface expression, HUT78 Protein: summary Table 3; for CD137L protein surface expression: HUT78 cells, dose range, 24 hours; for regulation of CD137L protein surface expression, HUT78 Protein: key: 'Y' indicates the treatment caused upregulation; 'N' indicates the treatment did not cause upregulation
Procedure: HUT78 cells, cultured in 6-well plates in RPMI-1640 medium containing 20% fetal bovine serum (FBS), were treated with a dose range of Romidepsin (0-0.1 μM), Bortezomib (0-1.0 μM), Belinostat (0-1.0 μM), Chidamide (0-3.0 μM), or Vincristine (0-0.03 μM) for 24 hours. Cells (1×10^5) were washed twice in Dulbecco's Phosphate Buffered Saline (DPBS), stained with either Phycoerythrin (PE)-conjugated Isotype Control (Biolegend catalog #400112) and anti-human-CD137L (Biolegend catalog #311504) antibodies (1 μL antibody in 100 μL DPBS, FIG. 5A-5E) or PE-Cy7-conjugated Isotype Control (Thermofisher catalog #25-4714-80) and anti-human-CD137L (Thermofisher catalog #25-5906-42) antibodies (1 μL antibody in 100 μL DPBS, FIG. 5F-5H) at 4° C. for 30 minutes, washed twice in DPBS, and resuspended in 100 μL DPBS for flow cytometry analysis.

[2] = system: SU-DHL1 human TCL cells; assay: mRNA expression, QuantiGene Plex assay, SU-DHL1; assay type: cell-based; settings: for regulation of CD137L mRNA expression, SU-DHL1 mRNA: summary Table 3; for regulation of CD137L mRNA expression, SU-DHL1 mRNA: key: 'Y' indicates the treatment caused upregulation; 'N' indicates the treatment did not cause upregulation
Procedure: (§1) HUT102, HUT78, and SU-DHL1 cells, cultured in 96-well plates, were treated with a dose range of Romidepsin (0-0.1 μM), Bortezomib (0-1.0 μM), Belinostat (0-10.0 μM), or Vincristine (0-0.03 μM) for 24 hours. Cells were lysed with Lysis Buffer and cell lysates were used for the QuantiGene Plex assay (7-gene multiplex (CD80, CD86, CD274, CD137, CD137L, HPRT1, GAPDH))

[3] = system: HUT102 human TCL cells; assay: mRNA expression, QuantiGene Plex assay, HUT102; assay type: cell-based; settings: for regulation of CD137L mRNA expression, HUT102 mRNA: summary Table 3; for CD137L mRNA expression / CD137 mRNA expression / CD274 mRNA expression: HUT102 cells, dose range, 24 hours; for regulation of CD137L mRNA expression, HUT102 mRNA: key: 'Y' indicates the treatment caused upregulation; 'N' indicates the treatment did not cause upregulation
Procedure: as §1

[4] = system: HUT78 human TCL cells; assay: mRNA expression, QuantiGene Plex assay, HUT78; assay type: cell-based; settings: for regulation of CD137L mRNA expression, HUT78 mRNA: summary Table 3; for CD137L mRNA expression: HUT78 cells, dose range, 24 hours; for regulation of CD137L mRNA expression, HUT78 mRNA: key: 'Y' indicates the treatment caused upregulation; 'N' indicates the treatment did not cause upregulation
Procedure: as §1

[5] = system: A20 B cell lymphoma cells; assay type: in vivo, BALB/c mice; settings: ADG106 5 mg/kg twice a week for 4 doses; Bendamustine 12.5 mg/kg once a day for 4 doses; intraperitoneal
Procedure: BALB/c mice (n=8 per group, female, 6-8 weeks old) were transplanted subcutaneously with 5×10^5 A20 B cell lymphoma cells. After tumors were established (i.e., having reached a volume of 100 mm^3), mice were treated with vehicle, ADG106 (5 mg/kg, twice a week for 4 doses by intraperitoneal injection), Bendamustine (12.5 mg/kg, once a day for 4 doses by intraperitoneal injection), or ADG106 (5 mg/kg, twice a week for 4 doses by intraperitoneal injection) in combination with Bendamustine (12.5 mg/kg, once a day for 4 doses by intraperitoneal injection). Tumor growth was monitored twice weekly and reported as mean tumor volume±SEM over time.

[6] = system: HUT78 human TCL cells; assay: Cell viability of HUT78 cells (CellTiter-Glo); assay type: cell-based; settings: dose range, 24 hours
Procedure: (§2) HUT78 cells, cultured in 96-well plates in RPMI-1640 medium containing 20% fetal bovine serum (FBS), were treated with a dose range of Romidepsin (0-0.1 μM), Bortezomib (0-1.0 μM), or Chidamide (0-3.0 μM) for 24 hours. The CellTiter-Glo assay (Promega) was used to assess cell viability according to the manufacturer's instructions.

[7] = system: purified human T cells; assay: Cell viability of purified human T cells (CellTiter-Glo); assay type: cell-based; settings: dose range, 24 hours
Procedure: as §2, with “T cells were purified from human PBMCs (>95% purity, data not shown),” for “HUT78 cells,”, “10%” for “20%”, “and” for “were”

[8] = system: HUT78 human TCL cells; assay: Time-dependent effects on CD137L protein surface expression (flow cytometry); assay type: cell-based; settings: 0.003 μM Romidepsin or 0.01 μM Bortezomib, 2, 6, 16 or 24 hours
Procedure: HUT78 cells, cultured in 6-well plates in RPMI-1640 medium containing 20% FBS, were treated with 0.003 μM Romidepsin or 0.01 μM Bortezonib for 2, 6, 16, or 24 hours. Cells (1×103) were washed twice in DPBS, stained with PE-conjugated Isotype Control (Biolegend catalog #400112) and anti-human-CD137L (Biolegend catalog #311504) antibodies (1 μL antibody in 100 μL DPBS) at 4° C. for 30 minutes, washed twice in DPBS, and resuspended in 100 μL DPBS for flow cytometry analysis.

[9] = system: human T lymphocytes; settings: Kim K. et al., Immunology 2002; cited from earlier work
[10] = SU-DHL1 cells, dose range, 24 hours

Compound | regulation of CD137L protein surface expression, HUT78 Protein [1] | CD137L protein surface expression [1] | regulation of CD137L mRNA expression, SU-DHL1 mRNA [2] | CD137L mRNA expression [2, 10] | regulation of CD137L mRNA expression, HUT102 mRNA [3] | CD137L mRNA expression [3] | regulation of CD137L mRNA expression, HUT78 mRNA [4] | CD137L mRNA expression [4] | expression of CD137 in human T lymphocytes [9] | also measured
O=C(/C=C/c1cccc(S(=O)(=O)Nc2ccccc2)c1)NO [Belinostat, belinostat] | Y | dose-dependent upregulation | Y | dose-dependent upregulation | Y | dose-dependent upregulation | Y | dose-dependent upregulation | – | CD137 mRNA expression [2, 10]: induced; CD137 mRNA expression [3]: induced; CD274 mRNA expression [3]: induced
Cn1c(CCCC(=O)O)nc2cc(N(CCCl)CCCl)ccc21 [Bendamustine, bendamustine] | – | – | – | – | – | – | – | – | – | tolerability in mice as monotherapies [5]: well tolerated
CC(C)C[C@H](NC(=O)[C@H](Cc1ccccc1)NC(=O)c1cnccn1)B(O)O [Bortezomib, bortezomib] | Y | dose-dependent upregulation | Y | dose-dependent upregulation | Y | dose-dependent upregulation | N | not | – | cell viability of HUT78 human TCL cells [6]: inhibited cell viability; viability of purified human T cells [7]: minimal or no effect; CD137L protein surface expression over time [8]: time-dependent upregulation; CD274 mRNA expression [3]: induced
Nc1cc(F)ccc1NC(=O)c1ccc(CNC(=O)/C=C/c2cccnc2)cc1 [Chidamide, chidamide] | Y | – | – | – | – | – | – | – | – | –
CO[C@@]12[C@H](COC(N)=O)C3=C(C(=O)C(C)=C(N)C3=O)N1C[C@@H]1N[C@@H]12 [Mitomycin, mitomycin] | – | – | – | – | – | – | – | – | induce expression of CD137 | –
C/C=C1\NC(=O)[C@H]2CSSCC/C=C/[C@H](CC(=O)N[C@H](C(C)C)C(=O)N2)OC(=O)[C@H](C(C)C)NC1=O [Romidepsin, romidepsin] | Y | – | Y | – | Y | – | Y | – | – | –
CC[C@]1(O)C[C@H]2CN(CCc3c([nH]c4ccccc34)[C@@](C(=O)OC)(c3cc4c(cc3OC)N(C=O)[C@H]3[C@@](O)(C(=O)OC)[C@H](OC(C)=O)[C@]5(CC)C=CCN6CC[C@]43[C@@H]65)C2)C1 [Vincristine, vincristine] | N | did not show upregulation | N | not | Y | induced upregulation | N | not | – | CD137 mRNA expression [3]: induced
COc1cccc2c1C(=O)c1c(O)c3c(c(O)c1C2=O)C[C@@](O)(C(=O)CO)C[C@@H]3O[C@H]1C[C@H](N)[C@H](O)[C@H](C)O1 [doxorubicin] | – | – | – | – | – | – | – | – | induce expression of CD137 | –
ADG106: anti-CD137 antibody; heavy chain SEQ ID NO: 10, light chain SEQ ID NO: 11; used as mouse IgG1 in Example 10 | – | – | – | – | – | – | – | – | – | tolerability in mice as monotherapies [5]: well tolerated
bleomycin | – | – | – | – | – | – | – | – | induce expression of CD137 | –
